From paper PMC5814754, “Quantitative, Wide-Spectrum Kinase Profiling in Live Cells for Assessing the Effect of Cellular ATP on Target Engagement” (Cell Chemical Biology, 2018)
Like-named read-outs stand apart in the source and are kept apart here. Blank lines part the entries; values can stand above or below the compound they belong to.

What was measured:
INSR = settings: read-out: Crizotinib IC50 Biochemical; ref Cui et al., 2011; cited from earlier work
EPHB6 = target: T1, EPHB6 (Homo sapiens, UniProt O15197); test: NanoBRET target engagement, EPHB6-NanoLuc, HEK293 cells (live, ATP depleted, permeabilized); settings: for EC50: read-out: Tracer Affinity EC50, EPHB6-NanoLuc
T1 sequence (O15197 32-1021): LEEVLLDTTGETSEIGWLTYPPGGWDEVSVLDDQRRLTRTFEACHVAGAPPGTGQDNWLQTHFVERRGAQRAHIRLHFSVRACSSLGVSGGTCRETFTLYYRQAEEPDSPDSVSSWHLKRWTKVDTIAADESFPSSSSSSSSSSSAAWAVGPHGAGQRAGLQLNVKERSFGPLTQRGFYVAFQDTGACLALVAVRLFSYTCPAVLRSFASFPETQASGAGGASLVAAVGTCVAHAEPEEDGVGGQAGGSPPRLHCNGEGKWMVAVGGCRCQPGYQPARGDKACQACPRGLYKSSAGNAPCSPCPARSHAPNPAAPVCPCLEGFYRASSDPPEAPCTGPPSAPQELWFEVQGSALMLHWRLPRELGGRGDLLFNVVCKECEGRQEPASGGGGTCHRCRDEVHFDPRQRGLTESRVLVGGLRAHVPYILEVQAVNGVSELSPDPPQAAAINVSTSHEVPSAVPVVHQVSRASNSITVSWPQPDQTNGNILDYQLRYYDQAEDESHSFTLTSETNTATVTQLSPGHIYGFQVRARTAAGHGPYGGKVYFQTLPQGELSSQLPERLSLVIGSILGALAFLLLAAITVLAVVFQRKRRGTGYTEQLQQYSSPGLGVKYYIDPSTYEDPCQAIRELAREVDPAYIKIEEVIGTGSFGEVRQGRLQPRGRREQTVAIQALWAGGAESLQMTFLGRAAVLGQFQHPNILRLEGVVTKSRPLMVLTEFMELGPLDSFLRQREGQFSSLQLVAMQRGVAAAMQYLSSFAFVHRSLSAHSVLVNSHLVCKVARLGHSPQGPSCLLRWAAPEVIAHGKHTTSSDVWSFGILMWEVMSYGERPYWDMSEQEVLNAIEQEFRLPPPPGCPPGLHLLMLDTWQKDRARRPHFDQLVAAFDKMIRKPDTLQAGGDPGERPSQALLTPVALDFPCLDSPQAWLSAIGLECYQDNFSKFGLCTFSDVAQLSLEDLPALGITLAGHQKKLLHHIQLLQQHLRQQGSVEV

ABL = settings: read-out: Crizotinib IC50 Biochemical; ref Cui et al., 2011; cited from earlier work
AXL = settings: read-out: Live Cell IC50 Phospho Elisa; ref Cui et al., 2011; cited from earlier work
[1] = target: full-length kinase/Nluc fusion proteins (Homo sapiens, UniProt P06239); test: Apparent affinity (EC50) of energy transfer probes by titration onto live HEK293 cells expressing kinase/Nluc fusions (Table S1); assay type: binding; settings: LCK
Sequence of full-length kinase/Nluc fusion proteins (Homo sapiens, UniProt P06239) (P06239 whole entry, the tested form may be a part): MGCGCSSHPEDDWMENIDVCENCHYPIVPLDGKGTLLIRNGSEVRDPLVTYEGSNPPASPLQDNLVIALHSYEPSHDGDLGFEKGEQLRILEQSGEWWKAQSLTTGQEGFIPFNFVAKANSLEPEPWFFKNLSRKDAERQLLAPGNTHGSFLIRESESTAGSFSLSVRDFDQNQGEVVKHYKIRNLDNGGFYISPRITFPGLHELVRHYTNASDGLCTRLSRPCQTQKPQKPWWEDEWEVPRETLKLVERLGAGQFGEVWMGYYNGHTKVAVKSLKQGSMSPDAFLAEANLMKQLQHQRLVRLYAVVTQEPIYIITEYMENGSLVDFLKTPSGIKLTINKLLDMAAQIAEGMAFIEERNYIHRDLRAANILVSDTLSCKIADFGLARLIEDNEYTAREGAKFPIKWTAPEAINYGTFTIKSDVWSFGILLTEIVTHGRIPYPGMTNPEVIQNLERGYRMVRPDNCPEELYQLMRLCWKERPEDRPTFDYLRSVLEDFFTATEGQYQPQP

[2] = target: full-length kinase/Nluc fusion proteins (Homo sapiens, UniProt P42685); test: as above; assay type: binding; settings: FRK, Nluc C; read-out: Probe EC50
[3] = target: full-length kinase/Nluc fusion proteins (Homo sapiens, UniProt P29323); test: as above; assay type: binding; settings: EPHB2, Nluc C; read-out: Probe EC50
[4] = target: full-length kinase/Nluc fusion proteins (Homo sapiens, UniProt Q8NG66); test: as above; assay type: binding; settings: NEK11, Nluc N; read-out: Probe EC50
Sequence of full-length kinase/Nluc fusion proteins (Homo sapiens, UniProt Q8NG66) (Q8NG66 whole entry, the tested form may be a part): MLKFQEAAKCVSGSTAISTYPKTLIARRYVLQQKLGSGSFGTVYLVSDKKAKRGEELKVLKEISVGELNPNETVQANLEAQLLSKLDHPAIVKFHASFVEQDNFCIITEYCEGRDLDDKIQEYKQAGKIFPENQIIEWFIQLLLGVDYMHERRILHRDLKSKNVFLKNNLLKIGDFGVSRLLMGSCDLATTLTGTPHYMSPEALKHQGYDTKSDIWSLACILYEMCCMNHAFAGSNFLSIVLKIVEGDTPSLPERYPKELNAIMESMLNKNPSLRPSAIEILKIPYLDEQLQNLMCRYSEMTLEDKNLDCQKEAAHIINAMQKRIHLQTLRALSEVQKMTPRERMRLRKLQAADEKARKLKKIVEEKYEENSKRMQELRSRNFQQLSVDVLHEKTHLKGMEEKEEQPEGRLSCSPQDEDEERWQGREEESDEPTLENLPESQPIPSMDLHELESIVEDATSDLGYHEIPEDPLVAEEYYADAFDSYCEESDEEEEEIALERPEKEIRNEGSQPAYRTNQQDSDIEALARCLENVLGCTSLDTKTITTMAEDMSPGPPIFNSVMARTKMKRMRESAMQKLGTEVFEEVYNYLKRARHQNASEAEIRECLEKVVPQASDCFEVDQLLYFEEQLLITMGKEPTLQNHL

[5] = target: full-length kinase/Nluc fusion proteins (Homo sapiens, UniProt Q9NSY1); test: as above; assay type: binding; settings: BMP2K, Nluc N; read-out: Probe EC50
Sequence of full-length kinase/Nluc fusion proteins (Homo sapiens, UniProt Q9NSY1) (Q9NSY1 whole entry, the tested form may be a part): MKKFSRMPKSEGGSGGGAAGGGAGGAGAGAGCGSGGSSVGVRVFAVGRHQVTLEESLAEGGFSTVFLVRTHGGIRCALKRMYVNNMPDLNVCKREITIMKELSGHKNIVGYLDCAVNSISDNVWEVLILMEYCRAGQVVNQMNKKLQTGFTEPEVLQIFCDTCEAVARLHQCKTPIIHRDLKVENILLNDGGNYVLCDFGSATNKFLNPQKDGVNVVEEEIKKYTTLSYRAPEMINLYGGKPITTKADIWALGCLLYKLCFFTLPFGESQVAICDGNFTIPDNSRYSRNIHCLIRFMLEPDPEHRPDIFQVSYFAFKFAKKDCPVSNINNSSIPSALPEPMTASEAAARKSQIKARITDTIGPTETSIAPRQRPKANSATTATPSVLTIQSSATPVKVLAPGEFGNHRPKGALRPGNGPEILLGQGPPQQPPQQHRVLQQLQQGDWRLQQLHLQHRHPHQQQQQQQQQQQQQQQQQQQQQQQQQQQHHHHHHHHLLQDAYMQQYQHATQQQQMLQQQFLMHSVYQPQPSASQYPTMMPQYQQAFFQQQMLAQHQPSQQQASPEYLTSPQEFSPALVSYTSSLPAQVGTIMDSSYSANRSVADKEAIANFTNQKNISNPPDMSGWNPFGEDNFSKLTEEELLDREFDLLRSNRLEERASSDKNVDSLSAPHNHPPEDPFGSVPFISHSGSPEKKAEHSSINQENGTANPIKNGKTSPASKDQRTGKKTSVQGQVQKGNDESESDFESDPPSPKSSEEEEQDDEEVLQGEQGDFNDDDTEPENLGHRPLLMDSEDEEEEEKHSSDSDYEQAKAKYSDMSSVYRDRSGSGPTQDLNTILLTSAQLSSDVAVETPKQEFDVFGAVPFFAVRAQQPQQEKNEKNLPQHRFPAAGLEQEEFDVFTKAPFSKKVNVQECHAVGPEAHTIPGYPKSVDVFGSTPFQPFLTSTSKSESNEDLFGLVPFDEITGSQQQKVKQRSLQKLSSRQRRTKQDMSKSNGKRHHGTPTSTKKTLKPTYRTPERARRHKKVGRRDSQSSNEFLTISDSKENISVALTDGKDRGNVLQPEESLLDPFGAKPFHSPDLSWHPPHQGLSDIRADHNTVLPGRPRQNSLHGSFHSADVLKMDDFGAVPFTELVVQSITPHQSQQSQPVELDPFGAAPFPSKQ

[6] = target: full-length kinase/Nluc fusion proteins (Homo sapiens, UniProt O60674); test: as above; assay type: binding; settings: JAK2, Nluc C; read-out: Probe EC50
[7] = target: full-length kinase/Nluc fusion proteins (Homo sapiens, UniProt Q12851); test: as above; assay type: binding; settings: MAP4K2, Nluc N; read-out: Probe EC50
Sequence of full-length kinase/Nluc fusion proteins (Homo sapiens, UniProt Q12851) (Q12851 whole entry, the tested form may be a part): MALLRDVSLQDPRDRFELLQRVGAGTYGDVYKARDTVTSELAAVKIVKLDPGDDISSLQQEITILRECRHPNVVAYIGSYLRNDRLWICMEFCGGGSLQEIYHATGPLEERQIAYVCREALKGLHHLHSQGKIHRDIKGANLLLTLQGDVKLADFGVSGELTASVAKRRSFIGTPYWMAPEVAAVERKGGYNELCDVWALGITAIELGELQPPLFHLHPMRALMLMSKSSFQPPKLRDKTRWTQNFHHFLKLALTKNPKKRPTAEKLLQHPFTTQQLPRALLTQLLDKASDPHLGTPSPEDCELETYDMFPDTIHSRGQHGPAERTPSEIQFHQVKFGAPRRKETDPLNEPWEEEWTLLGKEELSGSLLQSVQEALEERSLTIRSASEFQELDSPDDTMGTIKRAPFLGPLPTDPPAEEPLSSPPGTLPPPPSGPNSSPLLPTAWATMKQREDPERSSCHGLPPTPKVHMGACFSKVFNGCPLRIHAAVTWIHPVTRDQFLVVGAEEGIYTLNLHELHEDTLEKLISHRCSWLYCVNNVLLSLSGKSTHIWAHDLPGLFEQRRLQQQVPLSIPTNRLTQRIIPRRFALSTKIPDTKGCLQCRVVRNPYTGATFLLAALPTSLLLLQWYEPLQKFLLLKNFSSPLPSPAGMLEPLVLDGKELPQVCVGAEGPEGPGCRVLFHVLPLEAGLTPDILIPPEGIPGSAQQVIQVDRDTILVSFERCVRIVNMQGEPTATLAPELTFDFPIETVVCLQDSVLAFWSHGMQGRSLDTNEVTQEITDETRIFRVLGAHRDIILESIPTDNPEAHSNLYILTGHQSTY

[8] = target: full-length kinase/Nluc fusion proteins (Homo sapiens, UniProt P30291); test: as above; assay type: binding; settings: WEE1 (NP_003381), Nluc orientation C; read-out: Probe EC50
Sequence of full-length kinase/Nluc fusion proteins (Homo sapiens, UniProt P30291) (P30291 whole entry, the tested form may be a part): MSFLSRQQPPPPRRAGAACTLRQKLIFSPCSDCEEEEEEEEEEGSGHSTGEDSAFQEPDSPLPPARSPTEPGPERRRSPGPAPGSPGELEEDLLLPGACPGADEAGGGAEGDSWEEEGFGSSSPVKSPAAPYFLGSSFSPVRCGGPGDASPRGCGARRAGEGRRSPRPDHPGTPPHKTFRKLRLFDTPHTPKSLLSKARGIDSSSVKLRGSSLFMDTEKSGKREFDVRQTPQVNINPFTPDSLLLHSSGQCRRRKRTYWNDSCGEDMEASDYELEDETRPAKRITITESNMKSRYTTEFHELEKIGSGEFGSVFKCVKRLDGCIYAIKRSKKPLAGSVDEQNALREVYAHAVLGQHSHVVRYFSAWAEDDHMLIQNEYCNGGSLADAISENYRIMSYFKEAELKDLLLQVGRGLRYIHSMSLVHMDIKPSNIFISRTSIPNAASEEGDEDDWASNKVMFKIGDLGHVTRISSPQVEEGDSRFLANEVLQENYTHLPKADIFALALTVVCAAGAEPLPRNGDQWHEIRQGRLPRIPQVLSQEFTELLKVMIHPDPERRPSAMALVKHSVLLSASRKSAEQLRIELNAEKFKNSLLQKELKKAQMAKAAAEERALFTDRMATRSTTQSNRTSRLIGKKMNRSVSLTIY

[9] = target: full-length kinase/Nluc fusion proteins (Homo sapiens, UniProt O75716); test: as above; assay type: binding; settings: STK16 (NP_001317142), Nluc orientation N; read-out: Probe EC50
Sequence of full-length kinase/Nluc fusion proteins (Homo sapiens, UniProt O75716) (O75716 whole entry, the tested form may be a part): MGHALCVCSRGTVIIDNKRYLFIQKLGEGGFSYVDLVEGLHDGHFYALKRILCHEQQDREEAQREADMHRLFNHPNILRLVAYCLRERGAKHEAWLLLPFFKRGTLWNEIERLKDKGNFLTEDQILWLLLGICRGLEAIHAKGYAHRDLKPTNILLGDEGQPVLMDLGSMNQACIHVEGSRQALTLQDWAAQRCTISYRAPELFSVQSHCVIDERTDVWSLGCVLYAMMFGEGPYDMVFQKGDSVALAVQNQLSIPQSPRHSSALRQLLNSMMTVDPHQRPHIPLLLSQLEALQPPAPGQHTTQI

[10] = target: full-length kinase/Nluc fusion proteins (Homo sapiens, UniProt P78368); test: as above; assay type: binding; settings: CSNK1G2, Nluc N; read-out: Probe EC50
Sequence of full-length kinase/Nluc fusion proteins (Homo sapiens, UniProt P78368) (P78368 whole entry, the tested form may be a part): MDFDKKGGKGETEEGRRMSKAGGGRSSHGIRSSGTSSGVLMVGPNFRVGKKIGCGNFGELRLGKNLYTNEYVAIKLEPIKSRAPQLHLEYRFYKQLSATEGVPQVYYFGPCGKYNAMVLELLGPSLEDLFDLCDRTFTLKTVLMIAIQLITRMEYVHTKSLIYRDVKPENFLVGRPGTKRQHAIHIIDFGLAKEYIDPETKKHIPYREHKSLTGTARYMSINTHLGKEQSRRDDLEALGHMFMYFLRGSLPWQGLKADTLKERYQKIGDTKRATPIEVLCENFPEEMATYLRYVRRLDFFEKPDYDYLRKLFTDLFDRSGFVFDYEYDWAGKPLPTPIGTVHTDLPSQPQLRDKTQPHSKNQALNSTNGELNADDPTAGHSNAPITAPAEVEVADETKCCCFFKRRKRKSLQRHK

[11] = target: full-length kinase/Nluc fusion proteins (Homo sapiens, UniProt Q9Y6R4); test: as above; assay type: binding; settings: MAP3K4, Nluc C; read-out: Probe EC50
[12] = target: full-length kinase/Nluc fusion proteins (Homo sapiens, UniProt Q8IVH8); test: as above; assay type: binding; settings: MAP4K3, Nluc N; read-out: Probe EC50
[13] = target: full-length kinase/Nluc fusion proteins (Homo sapiens, UniProt Q05397); test: as above; assay type: binding; settings: PTK2, Nluc N; read-out: Probe EC50
[14] = target: full-length kinase/Nluc fusion proteins (Homo sapiens, UniProt Q8IYT8); test: as above; assay type: binding; settings: ULK2 (NP_001136082), Nluc orientation N; read-out: Probe EC50
[15] = target: full-length kinase/Nluc fusion proteins (Homo sapiens, UniProt P51812); test: as above; assay type: binding; settings: RPS6KA3 (NP_004577), Nluc orientation N; read-out: Probe EC50
[16] = target: full-length kinase/Nluc fusion proteins (Homo sapiens, UniProt Q9BVS4); test: as above; assay type: binding; settings: RIOK2, Nluc N; read-out: Probe EC50
[17] = target: full-length kinase/Nluc fusion proteins (Homo sapiens, UniProt P21802); test: as above; assay type: binding; settings: FGFR2, Nluc C; read-out: Probe EC50
LCK = LCK (Homo sapiens, UniProt P06239); test: NanoBRET target engagement, LCK-NanoLuc, HEK293 cells (live, ATP depleted, permeabilized); assay type: binding; settings: LCK-NanoLuc, read-out: Tracer Affinity EC50
Sequence of LCK (P06239 whole entry): as the sequence (P06239 whole entry, the tested form may be a part) above

Structure (SMILES): C[C@@H](Oc1cc(-c2cnn(C3CCNCC3)c2)cnc1N)c1c(Cl)ccc(F)c1Cl [Crizotinib]
receptor occupancy at 1 µM (EPHB6; read-out: cellular occupancy): < 10%

EC50 ([1]; Nluc C (probe 6)): > 1 µM
EC50 [2]: 0.4 µM
EC50 [3]: 0.02 µM
EC50 (EPHB6; ATP Depleted): > 1 µM
EC50 (EPHB6; Live): > 1 µM
EC50 (EPHB6; Permeabilized): 0.007 ± 0.003 µM
Structure (SMILES): Cc1nc(Nc2ncc(C(=O)Nc3c(C)cccc3Cl)s2)cc(N2CCN(CCOCCNC(=O)CCc3ccc4n3[B-](F)(F)[N+]3=C(c5ccc[nH]5)C=CC3=C4)CC2)n1 [Energy Transfer Probe 6, 2-((6-(4-(2-(2-aminoethoxy)ethyl)piperazin-1-yl)-2-methylpyrimidin-4-yl)amino)-N-(2-chloro-6-methylphenyl)thiazole-5-carboxamide-NanoBRET 590]

EC50 [4]: > 1 µM
EC50 [5]: > 1 µM
EC50 [6]: > 1 µM
EC50 [7]: > 1 µM
EC50 [8]: 0.05 µM
EC50 [9]: 0.3 µM
EC50 ([1]; Nluc C (probe 5)): > 1 µM
EC50 [10]: > 1 µM
EC50 [11]: > 1 µM
EC50 [12]: > 1 µM
EC50 [13]: 0.09 µM
EC50 [14]: > 1 µM
EC50 [15]: 0.2 µM
EC50 [16]: > 1 µM
EC50 [17]: 0.6 µM
EC50 (LCK; ATP Depleted): 0.37 ± 0.07 µM
EC50 (LCK; Live): > 1 µM
EC50 (LCK; Permeabilized): 0.052 ± 0.003 µM
Structure (SMILES): CNC(=O)c1ccccc1Nc1nc(Nc2ccc(N3CCN(C(=O)CCOCCOCCOCCOCCNC(=O)CCc4ccc5n4[B-](F)(F)[N+]4=C(c6ccc[nH]6)C=CC4=C5)CC3)cc2)ncc1Cl [Energy Transfer Probe 5, 2-((2-((4-(4-(1-amino-3,6,9,12-tetraoxapentadecan-15-oyl)piperazin-1-yl)phenyl)amino)-5-chloropyrimidin-4-yl)amino)-N-methylbenzamide-NanoBRET 590]
